The text below walks through data of patent US9078871B2, “Estrogen receptor modulators and uses thereof” (SERAGON PHARMACEUTICALS, INC., priority 2010, dated 2015).

Where only a bound is given, the exact number is not on record here.

What all share (type): cell-based
Assay [1] has as its system MCF-7 cells. Put plainly: Breast Cancer Cell Viability Assay (MCF7 Viability Assay). The note with it: 5 days' compound exposure, CellTiter-Glo; for IC50: Homo sapiens, MCF7, 120 h. The essentials:
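MCF-7 cells, 320 per well in RPMI with 10% FBS and 20 mM HEPES, adhered overnight, then exposed 5 days to an eleven-point semilog dilution (final 0.3–0.000003 μM). CellTiter-Glo luminescence; % viability relative to untreated cells after subtracting cell-free background.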
On the technique in general: In ATP-based viability assays light output follows the ATP content of the culture.

In assay [2] the target is T1, ER-α (Homo sapiens, UniProt P03372).
T1 construct: endogenous in cells; host or cells: MCF-7
T1 sequence (P03372 1-595): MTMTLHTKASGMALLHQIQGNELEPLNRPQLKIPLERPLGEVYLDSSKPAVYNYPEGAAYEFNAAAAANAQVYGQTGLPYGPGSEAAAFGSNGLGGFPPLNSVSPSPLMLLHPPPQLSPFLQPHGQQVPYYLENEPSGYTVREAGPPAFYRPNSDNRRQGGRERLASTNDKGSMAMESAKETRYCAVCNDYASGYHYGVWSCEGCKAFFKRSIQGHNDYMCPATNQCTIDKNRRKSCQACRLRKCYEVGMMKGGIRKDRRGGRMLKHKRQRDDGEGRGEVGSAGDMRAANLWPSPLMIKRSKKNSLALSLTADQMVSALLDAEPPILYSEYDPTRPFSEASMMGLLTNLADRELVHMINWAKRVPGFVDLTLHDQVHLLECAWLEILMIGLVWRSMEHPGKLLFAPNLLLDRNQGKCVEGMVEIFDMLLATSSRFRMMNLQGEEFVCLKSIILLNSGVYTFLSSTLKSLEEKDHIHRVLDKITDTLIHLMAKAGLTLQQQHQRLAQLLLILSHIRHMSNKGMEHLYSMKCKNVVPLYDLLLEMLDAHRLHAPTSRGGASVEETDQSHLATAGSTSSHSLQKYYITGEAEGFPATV
Put plainly: ER-α In Cell Western Assay (ER1D5). The note with it: MCF-7 cells, ER1D5 antibody, 4 or 24 hr post compound addition, read-out: ER In-Cell Western Assay (ER1D5); for Emax: MCF7, Max Response; for DC50: IC50. The method, then:
MCF-7 cells were adjusted to a concentration of 200,000 cells per mL in RPMI containing 10% charcoal-stripped FBS and 20 mM HEPES. 16 microliters of the cell suspension (3200 cells) was added to each well of a poly-D-lysine 384 well plate, and the cells were incubated overnight to allow the cells to adhere. The following day an eleven point, serial semilog dilution of each compound was added to the cells in 16 μL at a final concentration ranging from 0.3-0.000003 μM. At 4 or 24 hr post compound addition, the cells were fixed (10% formalin in PBS) for 20 minutes. Cells were permeabalized in PBS 0.1% Triton and blocked with LICOR blocking buffer (50 μl/well, 90′). The wells were then incubated overnight at 4° C. with ER1D5 (Santa Cruz Biotechnology) diluted 1:100 in LICOR blocking buffer/0.1% Tween-20. Wells which were treated with blocking buffer with Tween but no antibody were used as a background control. Wells were washed with 0.1% Tween-20/PBS and then incubated in goat anti-mouse IRDye™ 800CW (LICOR Inc.; 1:1000) and DRAQ5 DNA dye (1:2000 for 2 mM stock) diluted in LICOR blocking buffer containing 0.1% Tween-20 and 0.01% SDS for 60 minutes. Cells were washed (50 μl/well, 5′ each) in 0.1% Tween-20/PBS. Plates were scanned on a LICOR Odyssey infrared imaging system. Integrated intensities in the 800 nm channel and 700 nm channel were measured to determine levels of ER and DNA respectively. Percent ER levels were determined as follows: (Integrated intensity 800 nm sample/integrated intensity 700 nm sample)/(Integrated intensity 800 nm untreated cells/integrated intensity 700 nm untreated cells)×100=% ER levels.

Assay [3] addresses T1, ER-α. In words: ER-α in Cell Western Assay (SP1). The note with it: MCF-7 cells, SP1 rabbit monoclonal Ab, 4 or 24 hr post compound addition, read-out: ER In-Cell Western Assay (SP1); for Emax: MCF7, Max Response; for DC50: IC50. The essentials:
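MCF-7 cells in charcoal-stripped FBS medium treated with 11-point semilog dilutions (0.3–0.000003 μM final) for 4 or 24 hr, then fixed and immunostained with SP1 anti-ER antibody. ER signal (800 nm) normalized to DRAQ5 DNA signal (700 nm) and expressed as % of untreated cells.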

For `CC1=C(c2cccc(O)c2)C(c2ccc(OC[C@H](C)N3CC[C@@H](C)C3)cc2F)Oc2ccc(O)cc21` (stereo partly drawn) [Example 35, 2-(2-Fluoro-4-((S)-2-((R)-3-methylpyrrolidin-1-yl)propoxy)phenyl)-3-(3-hydroxyphenyl)-4-methyl-2H-chromen-6-ol], in assay [1], the “MCF7 Viability Assay Max Response” value was “++ (++ = a single % value ≧50%)” and the IC50 (as a rule, the point on the concentration scale where inhibition reaches its midpoint) is at most 1 nM. Moreover, in assay [2], the Emax is at least 65% and the DC50 is at most 1 nM. Further, in assay [3], the Emax is at least 85% and the DC50 is at most 1 nM.

Consider `CC1=C(c2cccc(O)c2)C(c2ccc(OCCN3CCC(C)(C)C3)cc2)Oc2ccc(O)cc21` (stereo not drawn) [Example 19, 2-(4-(2-(3,3-Dimethylpyrrolidin-1-yl)ethoxy)phenyl)-3-(3-hydroxyphenyl)-4-methyl-2H-chromen-6-ol], for which, in assay [1], the “MCF7 Viability Assay Max Response” value is on record as “++ (++ = a single % value ≧50%)” and the IC50 was at most 1 nM. In addition, in assay [2], the Emax was at least 65% and the DC50 was at most 1 nM. Moreover, in assay [3], the Emax lay within 60 to 85% and the DC50 was at most 1 nM.

Take `CC1=C(c2cccc(O)c2)C(c2ccc(OCCN3CCCCCC3)cc2)Oc2ccc(O)cc21` (stereo not drawn) [Example 17, 2-(4-(2-(Azepan-1-yl)ethoxy)phenyl)-3-(3-hydroxyphenyl)-4-methyl-2H-chromen-6-ol]: in assay [1], the “MCF7 Viability Assay Max Response” value is listed as “+ (+ = a single % value <50%)” and the half-inhibitory concentration (IC50) is at most 1 nM. Besides, in assay [2], the Emax lay in the range of 40 to 65% and the DC50 was at most 1 nM. In assay [3], the Emax was 60 to 85% and the DC50 is at most 1 nM.

As to `CC1=C(c2cccc(O)c2)C(c2ccc(OC[C@H](C)N3CCCCC3)cc2)Oc2ccc(O)cc21` (stereo partly drawn) [Example 1, 3-(3-Hydroxyphenyl)-4-methyl-2-(4-((S)-2-(piperidin-1-yl)propoxy)phenyl)-2H-chromen-6-ol], in assay [1], the “MCF7 Viability Assay Max Response” value is listed as “++ (++ = a single % value ≧50%)” and the half-inhibitory concentration (IC50) was at most 1 nM. Besides, in assay [2], the Emax was 40 to 65% and the DC50 is at most 1 nM. Besides, in assay [3], the Emax is 60 to 85% and the DC50 is at most 1 nM.

For the compound `CC1=C(c2cccc(O)c2)C(c2ccc(OCCN3CCC[C@H]3C)cc2)Oc2ccc(O)cc21` (stereo partly drawn) [Example 20, 3-(3-Hydroxyphenyl)-4-methyl-2-(4-(2-((R)-2-methylpyrrolidin-1-yl)ethoxy)phenyl)-2H-chromen-6-ol], in assay [1], the “MCF7 Viability Assay Max Response” value was “++ (++ = a single % value ≧50%)” and the IC50 was at most 1 nM. Besides, in assay [2], the Emax was 40 to 65% and the DC50 is at most 1 nM. Also, in assay [3], the Emax was 60 to 85% and the DC50 was at most 1 nM.

On to `CC1=C(c2cccc(O)c2)C(c2ccc(OC[C@H](C)N3CCCC3)cc2)Oc2ccc(O)cc21` (stereo partly drawn) [Example 6, 3-(3-Hydroxyphenyl)-4-methyl-2-(4-((S)-2-(pyrrolidin-1-yl)propoxy)phenyl)-2H-chromen-6-ol], for which, in assay [1], the “MCF7 Viability Assay Max Response” value is given as “++ (++ = a single % value ≧50%)” and the IC50 is at most 1 nM. Besides, in assay [2], the Emax is at least 65% and the DC50 is at most 1 nM. Besides, in assay [3], the Emax is 60 to 85% and the DC50 is at most 1 nM.

Regarding `CC1=C(c2cccc(O)c2)C(c2ccc(OCCN3CC[C@H](C)C3)cc2)Oc2ccc(O)cc21` (stereo partly drawn) [Example 11, 3-(3-Hydroxyphenyl)-4-methyl-2-(4-(2-((S)-3-methylpyrrolidin-1-yl)ethoxy)phenyl)-2H-chromen-6-ol], in assay [1], the “MCF7 Viability Assay Max Response” value was “++ (++ = a single % value ≧50%)” and the half-maximal inhibitory concentration (IC50) is at most 1 nM. In addition, in assay [2], the Emax was in the range of 40 to 65% and the DC50 was at most 1 nM. In addition, in assay [3], the Emax was in the range of 60 to 85% and the DC50 was at most 1 nM.

As for `CC1=C(c2cccc(O)c2)C(c2ccc(OC[C@@H](C)N3CC[C@H](C)C3)cc2)Oc2ccc(O)cc21` (stereo partly drawn) [Example 13, 3-(3-Hydroxyphenyl)-4-methyl-2-(4-((R)-2-((S)-3-methylpyrrolidin-1-yl)propoxy)phenyl)-2H-chromen-6-ol], in assay [1], the “MCF7 Viability Assay Max Response” value was “++ (++ = a single % value ≧50%)” and the IC50 was at most 1 nM. Further, in assay [2], the Emax is below 40% and the DC50 was at most 1 nM. Also, in assay [3], the Emax is below 60% and the DC50 is at most 1 nM.

With `CC1=C(c2cccc(O)c2)C(c2ccc(OCCn3cccc3)cc2)Oc2ccc(O)cc21` (stereo not drawn) [Example 14, 3-(3-Hydroxyphenyl)-4-methyl-2-(4-(2-pyrrolylethoxy)phenyl)-2H-chromen-6-ol], in assay [1], the “MCF7 Viability Assay Max Response” value is recorded as “+ (+ = a single % value <50%)” and the IC50 is at most 1 nM. Besides, in assay [2], the Emax lay in the range of 40 to 65% and the DC50 is at most 1 nM. For the same compound, in assay [3], the Emax was in the range of 60 to 85% and the DC50 was at most 1 nM.

On to `CC1=C(c2cccc(O)c2)C(c2ccc(OCCN3CCC[C@@H](C)C3)cc2)Oc2ccc(O)cc21` (stereo partly drawn) [Example 53, 3-(3-Hydroxyphenyl)-4-methyl-2-(4-(2-((R)-3-methylpiperidin-1-yl)ethoxy)phenyl)-2H-chromen-6-ol], for which, in assay [1], the “MCF7 Viability Assay Max Response” value is given as “++ (++ = a single % value ≧50%)” and the IC50 is at most 1 nM. Further, in assay [2], the Emax is 40 to 65% and the DC50 was at most 1 nM. Moreover, in assay [3], the Emax was 60 to 85% and the DC50 is at most 1 nM.

Regarding `CC1=C(c2cccc(O)c2)C(c2ccc(OC[C@H](C)N3CCC[C@@H]3C)cc2)Oc2ccc(O)cc21` (stereo partly drawn) [Example 24, 3-(3-Hydroxyphenyl)-4-methyl-2-(4-((S)-2-((S)-2-methylpyrrolidin-1-yl)propoxy)phenyl)-2H-chromen-6-ol], in assay [1], the “MCF7 Viability Assay Max Response” value is “+ (+ = a single % value <50%)” and the half-maximal inhibitory concentration (IC50) was at most 1 nM. In assay [2], the Emax fell in the range of 40 to 65% and the DC50 was at most 1 nM. In addition, in assay [3], the Emax is below 60% and the DC50 is at most 1 nM.

For `CC1=C(c2ccc(S(C)(=O)=O)cc2)C(c2ccc(OC[C@H](C)N3CC[C@@H](C)C3)cc2)Oc2ccc(O)cc21` (stereo partly drawn) [Example 59, 4-Methyl-2-(4-((S)-2-((R)-3-methylpyrrolidin-1-yl)propoxy)phenyl)-3-(4-(methylsulfonyl)phenyl)-2H-chromen-6-ol], in assay [1], the “MCF7 Viability Assay Max Response” value is recorded as “++ (++ = a single % value ≧50%)” and the IC50 is above 1 nM. In assay [2], the Emax lay within 40 to 65% and the DC50 is above 1 nM. Besides, in assay [3], the Emax fell in the range of 60 to 85% and the DC50 is above 1 nM.

Consider `CC1=C(c2cccc(F)c2)C(c2ccc(OC[C@H](C)N3CC[C@@H](C)C3)cc2)Oc2ccc(O)cc21` (stereo partly drawn) [Example 32, 3-(3-Fluorophenyl)-4-methyl-2-(4-((S)-2-((R)-3-methylpyrrolidin-1-yl)propoxy)phenyl)-2H-chromen-6-ol], for which, in assay [1], the “MCF7 Viability Assay Max Response” value is listed as “+ (+ = a single % value <50%)” and the IC50 is at most 1 nM. In assay [2], the Emax is at least 65% and the DC50 is at most 1 nM. In addition, in assay [3], the Emax was at least 85% and the DC50 is at most 1 nM.
